The values below come from ChEMBL document CHEMBL5584216, “Expanded library of novel 2,3-pyrrolidinedione analogues exhibit anti-biofilm activity” (2024).

Structures are written as SMILES.

Holding throughout (format): functional
Experiment [1] deals with Staphylococcus aureus. As to the kind of experiment: Antibiofilm activity against methicillin-sensitive Staphylococcus aureus ATCC 25923 assessed as biofilm eradication at pH 9.0.
Experiment [2] concerns Staphylococcus aureus. As to the kind of experiment: Antimicrobial activity against methicillin-sensitive Staphylococcus aureus ATCC 25923 assessed as reduction in microbial growth at pH 9.0.
In experiment [3] the test system is Staphylococcus aureus. As to the kind of experiment: Antibiofilm activity against methicillin-resistant Staphylococcus aureus ATCC BAA-44 at 5 uM relative to control.
For experiment [4], the system named is Staphylococcus aureus. The experiment is described as follows: Antibiofilm activity against methicillin-resistant Staphylococcus aureus ATCC BAA-44 at 40 uM relative to control.
In experiment [5] the test system is Staphylococcus aureus. As to the kind of experiment: Antimicrobial activity against methicillin-resistant Staphylococcus aureus ATCC 33591 assessed as reduction in microbial growth.

With `CCC1C(c2ccc(C(F)(F)F)cc2)=C(O)C(=O)N1CCc1ccccc1` (stereo not given), in experiment [1], the MBEC came out at 256 µg/mL. Also, the MIC in experiment [2] was 64 µg/mL; in experiment [5] it was above 128 µg/mL. In addition, the Activity in experiment [3] turned out to be 23%; in experiment [4], 45%.
The matching figures for `CCC1C(c2ccc(C(F)(F)F)cc2)=C(O)C(=O)N1c1ccccc1` (stereo not given): 128 µg/mL, 16 µg/mL, 16 µg/mL, 5% and 85%.
For `CCC1C(c2ccc(C(F)(F)F)cc2)=C(O)C(=O)N1c1ccc(F)cc1` (stereo not given), in that order: 128 µg/mL, 16 µg/mL, 16 µg/mL, 22% and 81%.
In the case of `CCC1C(c2ccc(C(F)(F)F)cc2)=C(O)C(=O)N1c1ccc(OC)c(OC)c1` (stereo not given), the MBEC in experiment [1] is above 512 µg/mL. For the same compound, the MIC was 64 µg/mL in experiment [2] and above 128 µg/mL in experiment [5]. Besides, the Activity in experiment [3] is recorded as 17%; in experiment [4], 70%.
Regarding `CCCCCN1C(=O)C(O)=C(c2ccc(C(F)(F)F)cc2)C1CC` (stereo not given), in experiment [1], the MBEC came out at 256 µg/mL. The minimal inhibitory concentration (MIC) in experiment [2] came to 32 µg/mL; in experiment [5], 16 µg/mL. Moreover, the results for the Activity in experiment [3] and in experiment [4] were 58% and 63%, respectively.
The matching figures for `CCC1C(c2ccc(C(F)(F)F)cc2)=C(O)C(=O)N1c1ccccn1` (stereo not given): 128 µg/mL, 32 µg/mL, above 128 µg/mL, 4% and 31%.
The matching figures for `CC(C)C1C(c2ccc(C(F)(F)F)cc2)=C(O)C(=O)N1c1ccccc1` (stereo not given): 512 µg/mL, 16 µg/mL, above 128 µg/mL, -5% and 3%.
The matching figures for `O=C1C(O)=C(c2ccc(C(F)(F)F)cc2)CN1c1ccccc1`: 512 µg/mL, above 256 µg/mL, above 128 µg/mL, 26% and 8%.
With `CCC1C(c2ccc(C(F)(F)F)cc2)=C(O)C(=O)N1c1ccc(Br)cc1` (stereo not given), in experiment [1], the MBEC came to 128 µg/mL. Further, the MIC in experiment [2] and in experiment [5] was 32 µg/mL throughout. Moreover, the results for the Activity in experiment [3] and in experiment [4] were 34% and 72%, respectively.
With `CC1C(c2ccc(C(F)(F)F)cc2)=C(O)C(=O)N1c1ccccc1` (stereo not given), in experiment [1], the MBEC was found to be 256 µg/mL. The MIC in experiment [2] is 16 µg/mL; in experiment [5], 32 µg/mL. For the same compound, the Activity is -26% in experiment [3] and 72% in experiment [4].
Take `CCCCCCN1C(=O)C(O)=C(c2ccc(C(F)(F)F)cc2)C1CC` (stereo not given): in experiment [1], the MBEC came out at 512 µg/mL. Further, the minimal inhibitory concentration (MIC) in experiment [2] is 32 µg/mL; in experiment [5], 16 µg/mL. For the same compound, the Activity in experiment [3] is recorded as 59%; in experiment [4] it was 85%.
The matching figures for `CCC1C(c2ccc(C(F)(F)F)cc2)=C(O)C(=O)N1CCC(C)C` (stereo not given): above 512 µg/mL, 64 µg/mL, above 128 µg/mL, 47% and 43%.
`CCC1C(c2ccc(C(F)(F)F)cc2)=C(O)C(=O)N1Cc1cccs1` (stereo not given): the MBEC in experiment [1] was 128 µg/mL. Further, the figures for the MIC in experiment [2] and in experiment [5] were 32 µg/mL and above 128 µg/mL, respectively. For the same compound, the Activity in experiment [3] is reported as 54%; in experiment [4], 79%.
For `CCCCCCCN1C(=O)C(O)=C(c2ccc(C(F)(F)F)cc2)C1CC` (stereo not given), in that order: above 512 µg/mL, 32 µg/mL, 64 µg/mL, 64% and 59%.
For `CCC1C(c2ccc(C(F)(F)F)cc2)=C(O)C(=O)N1Cc1ccc(OC)cc1OC` (stereo not given), in that order: above 512 µg/mL, above 256 µg/mL, above 128 µg/mL, 63% and 57%.
